Patent US20260250291A1, “INHIBITORS OF FGFR2 AND FGFR3 AND USES THEREOF” (Insilico Medicine IP Limited, priority 2023, published 2026)

Experiments:
FGFR1 = molecular target: T1, FGFR1 (Homo sapiens, UniProt P11362); test: FGFR biochemical assay (LanthaScreen TR-FRET), FGFR1; settings: ATP 28 μM, FGFR1 0.01 nM
T1 construct: purchased Carna
Experimental: (§1) The following procedure was used to test the compounds described herein: • Dilute the test compounds to 100× of the final desired highest concentration in reaction by 100% DMSO. • Perform a serial dilution in a 384-well source plate by transferring 15 μL to 30 μL of […] DMSO in the next well and so forth for a total of 10 concentrations. • Dispense 100 nL of compound solution each well from the source plate to a 384-well assay plate in duplicates by Echo (Labcyte). • Prepare a solution of 2× FGFR enzyme (Carna) in kinase buffer (50 mM HEPES, pH 7.5, 10 mM MgCl2, 4 mM DTT, 0.01% Tween-20 and 0.01% BSA). The final concentration of FGFR1/2/3/4 is 0.01. 0.01, 0.1 and 1 nM, respectively. • Add 5 μL of kinase solution to each well of the compound-containing assay plate, except for low control wells without enzyme (add 5 μL of 1× kinase buffer instead). • Shake the plate and incubate at room temperature for 10 minutes (for Example 1) (or 60 min for the remaining Examples in Table 4). • Prepare the substrate solution of Fluorescein-Poly GT (Invitrogen) and ATP (Sigma) in 1× kinase reaction buffer at 2-fold of the final concentration of each reagent desired in the assay (final concentration of ATP is 28, 22, 35 and 238 μM for FGFR1/2/3/4 respectively; Fluorescein-Poly GT is fixed at 20 nM). • Add 5 μL of substrate solution to each well of the assay plate to initiate the kinase reaction. • Shake the plate shortly and incubate at room temperature for 30 minutes. • Prepare 2× detection solution in Antibody Dilution Buffer (LanthaScreen® Tb—PY20 Antibody Kit, Invitrogen). • Add 10 μL of detection solution to each well of the assay plate to stop the reaction. • Mix briefly with centrifuge and incubate at room temperature for 60 minutes before reading on a microplate reader. • Collect data on Envision with excitation at 340 nm and emission at 520 nm and 495 nm. • Calculate Ratio of RFU 520 nm/RFU 495 nm. Convert Ratio values to percent inhibition values (Percent inhibition=(max−sample Ratio)/(max−min)*100) where “min” means the Ratio of no enzyme control and “max” means the Ratio of DMSO control. • Data are analyzed and curve fitting is performed by XLFit Excel add-in version 5.4.0.8. The IC50 calculation equation is: Y=Bottom+(Top−Bottom)/(1+(IC50/X)^HillSlope.

FGFR3 = molecular target: T2, FGFR3 (Homo sapiens, UniProt P22607); test: FGFR biochemical assay (LanthaScreen TR-FRET), FGFR3; settings: ATP 35 μM, FGFR3 0.1 nM
T2 construct: purchased Carna
T2 sequence (P22607 23-806): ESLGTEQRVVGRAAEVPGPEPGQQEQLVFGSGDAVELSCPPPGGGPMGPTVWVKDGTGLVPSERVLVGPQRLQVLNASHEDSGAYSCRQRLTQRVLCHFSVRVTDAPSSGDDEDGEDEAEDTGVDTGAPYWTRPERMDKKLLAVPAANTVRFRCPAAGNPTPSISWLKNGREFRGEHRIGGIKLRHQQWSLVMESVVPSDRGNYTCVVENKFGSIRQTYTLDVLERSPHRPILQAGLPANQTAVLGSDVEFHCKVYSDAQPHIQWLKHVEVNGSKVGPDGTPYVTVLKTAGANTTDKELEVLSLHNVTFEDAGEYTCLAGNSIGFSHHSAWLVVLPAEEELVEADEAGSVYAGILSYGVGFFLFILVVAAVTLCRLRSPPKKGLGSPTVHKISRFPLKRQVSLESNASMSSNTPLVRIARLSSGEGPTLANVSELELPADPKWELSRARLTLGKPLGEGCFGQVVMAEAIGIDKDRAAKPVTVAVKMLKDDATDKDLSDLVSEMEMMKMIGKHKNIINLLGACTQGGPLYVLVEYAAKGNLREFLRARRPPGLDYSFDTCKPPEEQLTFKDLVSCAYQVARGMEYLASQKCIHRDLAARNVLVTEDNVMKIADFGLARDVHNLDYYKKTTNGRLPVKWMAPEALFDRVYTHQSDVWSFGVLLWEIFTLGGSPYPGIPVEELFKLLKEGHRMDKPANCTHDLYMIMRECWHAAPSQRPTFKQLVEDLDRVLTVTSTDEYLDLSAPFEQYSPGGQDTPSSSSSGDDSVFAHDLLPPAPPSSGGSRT
Experimental: as §1

FGFR2 = molecular target: T3, FGFR2 (Homo sapiens, UniProt P21802); test: FGFR biochemical assay (LanthaScreen TR-FRET), FGFR2; settings: ATP 22 μM, FGFR2 0.01 nM
T3 construct: purchased Carna
T3 sequence (P21802 22-821): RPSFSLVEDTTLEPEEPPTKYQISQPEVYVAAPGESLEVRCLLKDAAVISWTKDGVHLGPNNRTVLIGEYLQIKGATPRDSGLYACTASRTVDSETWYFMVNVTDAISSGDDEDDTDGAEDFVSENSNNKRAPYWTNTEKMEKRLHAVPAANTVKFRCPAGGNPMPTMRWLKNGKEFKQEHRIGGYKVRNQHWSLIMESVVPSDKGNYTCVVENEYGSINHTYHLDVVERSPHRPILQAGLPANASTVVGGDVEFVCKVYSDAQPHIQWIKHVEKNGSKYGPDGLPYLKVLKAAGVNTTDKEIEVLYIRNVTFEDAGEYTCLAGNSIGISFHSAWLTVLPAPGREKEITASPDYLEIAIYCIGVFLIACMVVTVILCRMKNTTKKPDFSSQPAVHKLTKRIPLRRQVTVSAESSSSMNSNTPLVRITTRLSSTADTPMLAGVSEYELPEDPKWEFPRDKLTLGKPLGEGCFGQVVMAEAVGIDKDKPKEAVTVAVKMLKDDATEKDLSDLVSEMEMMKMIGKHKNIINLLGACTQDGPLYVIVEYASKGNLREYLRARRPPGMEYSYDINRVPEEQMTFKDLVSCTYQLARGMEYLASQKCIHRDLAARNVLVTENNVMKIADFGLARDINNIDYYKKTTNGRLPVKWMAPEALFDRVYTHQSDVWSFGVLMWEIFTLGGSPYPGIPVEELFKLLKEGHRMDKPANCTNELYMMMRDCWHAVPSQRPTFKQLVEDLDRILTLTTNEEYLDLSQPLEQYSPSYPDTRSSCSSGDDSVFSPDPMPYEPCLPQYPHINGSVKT
Experimental: as §1

RT4 (FGFR3) = test: Cellular proliferation assay (CellTiter-Glo), RT4; type: cell-based; settings: Homo sapiens, RT-4, RT4 cells, 72 hours
Experimental: (§2) Compounds were tested proliferation assay in SNU-16, KATO-III, SNU-1, AGS, AN3CA, MFE280, MKN45, KLE, RT112-84, RT4, T24, UM-UC-3, KMS11, OPM-2, RAPI8226, U266, SUM 52PE, MCF7 and BaF3 cell lines. Test compounds were prepared in 10 mM DMSO stock solutions, add […] 1000× stock solution to 98 μL growth medium to get […] final concentration, 3-fold 9-points dilution was performed. Cell lines suspension of 95 μL were seeded into 96-well plate and incubated at 37° C. for 24 hours, add 5 μL 20× compounds solutions to 96-well plate according to the plate map with Echo550 liquid handler. Final DMSO concentration in each well is 0.1%, cell lines were incubated at 37° C. for 72 hours, then equilibrate the assay plate to room temperature before measurement, add 50 μL of CellTiter-Glo® Reagent into each well, mix contents for 2 minutes on an orbital shaker to induce cell lysis and incubate at room temperature for 10 minutes to stabilize luminescent signal, Chemiluminescence was then read on an EnVision reader. Inhibition Rate (Inh. %) was calculated relative to vehicle (DMSO) treated control wells using following formula: Inhibition Rate (Inh %)=100−(RLU compound−RLU blank)/(RLU control−RLU blank)*100%, Data were analyzed using Graphpad Prism 7.0, fitting to a 4-parameter equation to generate concentration response curves.

SNU-16 (FGFR2) = test: Cellular proliferation assay (CellTiter-Glo), SNU-16; type: cell-based; settings: Homo sapiens, SNU-16 cells, 72 hours
Experimental: as §2

[1] = enzyme pre-incubation 10 minutes (for Example 1)

T1 sequence (P11362 22-822): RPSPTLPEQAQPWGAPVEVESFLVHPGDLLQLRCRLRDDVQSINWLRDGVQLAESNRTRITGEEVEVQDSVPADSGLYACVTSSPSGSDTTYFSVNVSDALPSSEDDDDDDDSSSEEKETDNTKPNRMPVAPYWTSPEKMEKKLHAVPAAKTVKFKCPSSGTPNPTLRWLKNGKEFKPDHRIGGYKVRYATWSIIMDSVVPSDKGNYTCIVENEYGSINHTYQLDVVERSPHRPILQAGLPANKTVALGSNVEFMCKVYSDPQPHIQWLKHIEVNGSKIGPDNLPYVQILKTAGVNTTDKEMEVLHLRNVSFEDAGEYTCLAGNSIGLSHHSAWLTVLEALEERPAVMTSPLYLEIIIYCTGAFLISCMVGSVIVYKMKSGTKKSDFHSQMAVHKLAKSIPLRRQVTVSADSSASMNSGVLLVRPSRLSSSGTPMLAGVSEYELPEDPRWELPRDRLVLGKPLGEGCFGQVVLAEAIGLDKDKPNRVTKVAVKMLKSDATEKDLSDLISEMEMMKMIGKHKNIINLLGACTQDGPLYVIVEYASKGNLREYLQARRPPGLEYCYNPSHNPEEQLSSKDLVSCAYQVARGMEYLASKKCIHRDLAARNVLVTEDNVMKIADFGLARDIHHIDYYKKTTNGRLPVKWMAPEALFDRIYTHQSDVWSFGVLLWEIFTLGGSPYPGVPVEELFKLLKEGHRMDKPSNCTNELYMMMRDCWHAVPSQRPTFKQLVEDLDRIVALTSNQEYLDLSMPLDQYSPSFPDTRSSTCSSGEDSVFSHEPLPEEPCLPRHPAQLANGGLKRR

Row | Structure (SMILES) | IC50 (FGFR1; [1]) [nM] | IC50 (FGFR3; [1]) [nM] | IC50 (FGFR2; [1]) [nM] | IC50 (RT4 (FGFR3)) [nM] | IC50 (SNU-16 (FGFR2)) [nM] | IC50 (FGFR1; enzyme pre-incubation 60 min) [nM] | IC50 (FGFR3; enzyme pre-incubation 60 min) [nM] | IC50 (FGFR2; enzyme pre-incubation 60 min) [nM]
1 | C=CC(=O)Nc1ccc(-c2c(-c3ccc(Oc4cccc(C)n4)cc3)c(C(N)=O)n3cccnc23)cc1 [Example 1] | 100 to 1000 | 10 to 100 | < 10 |  |  |  |  | 
2 | C=C(F)C(=O)Nc1ccc(-c2c(-c3ccc(Oc4nccc(C)n4)c(F)c3)c(C(N)=O)n3cc(C)cnc23)cc1 [Example 2] |  |  |  | 10 to 100 | < 10 | 100 to 1000 | 10 to 100 | < 10
3 | C=C(F)C(=O)Nc1ccc(-c2c(-c3ccc(Oc4nccc(C)n4)c(F)c3)c(C(N)=O)n3cc(C)ncc23)cc1 [Example 3] |  |  |  | 10 to 100 | < 10 | 100 to 1000 | 10 to 100 | < 10
4 | C=C(F)C(=O)Nc1ccc(-c2c(-c3ccc(Oc4nccc(C)n4)c(F)c3)c(C(N)=O)n3ccc(C)nc23)cc1 [Example 4] |  |  |  | 100 to 1000 | 10 to 100 | 100 to 1000 | 100 to 1000 | 10 to 100
5 | C=C(F)C(=O)Nc1ccc(-c2c(-c3ccc(Oc4nccc(C)n4)c(F)c3)c(C(N)=O)n3cc(C4CC4)cnc23)cc1 [Example 5] |  |  |  | 10 to 100 | 10 to 100 | 100 to 1000 | 10 to 100 | 10 to 100
6 | C=C(F)C(=O)Nc1ccc(-c2c(-c3ccc(Oc4nccc(C)n4)cc3)c(C(N)=O)n3cc(N4CCN(C)CC4)cnc23)cc1 [Example 6] |  |  |  |  |  | 100 to 1000 | 10 to 100 | < 10
7 | C=C(F)C(=O)Nc1ccc(-c2c(-c3ccc(Oc4nccc(C)n4)c(F)c3)c(C(N)=O)n3cc(CC)cnc23)cc1 [Example 7] |  |  |  | 10 to 100 |  | > 1000 | 100 to 1000 | < 10
8 | C=C(F)C(=O)Nc1ccc(-c2c(-c3ccc(Oc4nccc(C)n4)c(F)c3)c(C(N)=O)n3cc(N4CCOCC4)cnc23)cc1 [Example 8] |  |  |  | 10 to 100 | < 10 | > 1000 | 10 to 100 | < 10
9 | C=C(F)C(=O)Nc1ccc(-c2c(-c3ccc(Oc4nccc(C)n4)c(F)c3)c(C(N)=O)n3cc(-c4cnn(C)c4)cnc23)cc1 [Example 9] |  |  |  |  |  | 100 to 1000 | 100 to 1000 | < 10
10 | C=C(F)C(=O)Nc1ccc(-c2c(-c3ccc(Oc4nccc(C)n4)c(F)c3)c(C(N)=O)n3cc(C#CC)cnc23)cc1 [Example 10] |  |  |  |  |  | 100 to 1000 | 100 to 1000 | 10 to 100
11 | C=C(F)C(=O)Nc1ccc(-c2c(-c3ccc(Oc4nccc(C)n4)c(F)c3)c(C(N)=O)n3cccnc23)cc1 [Example 11] |  |  |  |  |  | 100 to 1000 | 10 to 100 | < 10
12 | C=C(F)C(=O)Nc1ccc(-c2c(-c3ccc(Oc4nccc(C)n4)c(F)c3)c(C(N)=O)n3ccccc23)cc1 [Example 12] |  |  |  |  |  | 100 to 1000 | 10 to 100 | < 10
13 | CC#CC(=O)Nc1ccc(-c2c(-c3ccc(Oc4nccc(C)n4)c(F)c3)c(C(N)=O)n3cc(C)cnc23)cc1 [Example 13] |  |  |  | 10 to 100 | < 10 | 100 to 1000 | 10 to 100 | < 10
14 | Cc1cnc2c(-c3ccc(NC(=O)/C=C/CN(C)C)cc3)c(-c3ccc(Oc4nccc(C)n4)c(F)c3)c(C(N)=O)n2c1 [Example 14] |  |  |  | 10 to 100 | < 10 | 100 to 1000 | 10 to 100 | < 10
15 | C=C(F)C(=O)Nc1ccc(-c2c(-c3ccc(Oc4nccc(C)n4)cc3Cl)c(C(N)=O)n3cc(C)cnc23)cc1 [Example 15] |  |  |  |  |  | > 1000 | 100 to 1000 | 100 to 1000
16 | C=C(F)C(=O)Nc1ccc(-c2c(-c3ccc(Oc4nccc(C)n4)c(F)c3)c(C(N)=O)n3cc(Cl)cnc23)cc1 [Example 16] |  |  |  |  |  | 100 to 1000 | 100 to 1000 | 10 to 100
17 | C=C(F)C(=O)N1CCc2cc(-c3c(-c4ccc(Oc5nccc(C)n5)c(F)c4)c(C(N)=O)n4cc(C)cnc34)ccc21 [Example 17] |  |  |  | 10 to 100 | < 10 | 100 to 1000 | < 10 | < 10
18 | C=C(F)C(=O)Nc1ccc(-c2c(-c3ccc(Oc4nccc(C)n4)c(F)c3)c(C(N)=O)n3cc(C)cnc23)c(F)c1 [Example 18] |  |  |  |  |  | 10 to 100 | < 10 | < 10
19 | C=C(C)C(=O)Nc1ccc(-c2c(-c3ccc(Oc4nccc(C)n4)c(F)c3)c(C(N)=O)n3cc(C)cnc23)c(F)c1 [Example 19] |  |  |  |  |  | > 1000 | 100 to 1000 | 10 to 100
20 | C=C(F)C(=O)Nc1ccc(-c2c(-c3ccc(Oc4nccc(C)n4)cc3)c(C(N)=O)n3cc(C)cnc23)cc1 [Example 20] |  |  |  | 10 to 100 | < 10 | 100 to 1000 | 10 to 100 | < 10
21 | Cc1cnc2c(-c3ccc(NC(=O)/C(F)=C/CN(C)C)cc3)c(-c3ccc(Oc4nccc(C)n4)c(F)c3)c(C(N)=O)n2c1 [Example 21] |  |  |  |  |  | > 1000 | 10 to 100 | 10 to 100
22 | Cc1cnc2c(-c3ccc(NC(=O)/C=C/CNC4COC4)cc3)c(-c3ccc(Oc4nccc(C)n4)c(F)c3)c(C(N)=O)n2c1 [Example 22] |  |  |  | 10 to 100 | < 10 | 100 to 1000 | 10 to 100 | < 10
23 | Cc1cnc2c(-c3ccc(NC(=O)/C=C/CN4CC(O)C4)cc3)c(-c3ccc(Oc4nccc(C)n4)c(F)c3)c(C(N)=O)n2c1 [Example 23] |  |  |  | 100 to 1000 | 10 to 100 | 10 to 100 | < 10 | < 10
